In patent US8394969B2, “Cyclic benzimidazole derivatives useful as anti-diabetic agents” (Merck Sharp & Dohme Corp., priority 2008, dated 2013) one finds Emax data, which are given here for 34 compounds.

This assay has as its target recombinant human AMPK complex 1 (containing α1β1γ1) (Homo sapiens, UniProt Q13131+Q9Y478). The experiment in a line: […] (in vitro AMPK activation assay). It is filed as biochemical. Particulars: read-out: % Maximum AMP Activation of human AMPK Complex 1.
Setting [1] is: recombinant human AMPK complex 1 (α1β1γ1), basal activity subtracted.

Counter-ions that a name gives are not always drawn. Like-named read-outs stand apart in the source and are kept apart here.

Chain of recombinant human AMPK complex 1 (containing α1β1γ1) (Q13131 whole entry): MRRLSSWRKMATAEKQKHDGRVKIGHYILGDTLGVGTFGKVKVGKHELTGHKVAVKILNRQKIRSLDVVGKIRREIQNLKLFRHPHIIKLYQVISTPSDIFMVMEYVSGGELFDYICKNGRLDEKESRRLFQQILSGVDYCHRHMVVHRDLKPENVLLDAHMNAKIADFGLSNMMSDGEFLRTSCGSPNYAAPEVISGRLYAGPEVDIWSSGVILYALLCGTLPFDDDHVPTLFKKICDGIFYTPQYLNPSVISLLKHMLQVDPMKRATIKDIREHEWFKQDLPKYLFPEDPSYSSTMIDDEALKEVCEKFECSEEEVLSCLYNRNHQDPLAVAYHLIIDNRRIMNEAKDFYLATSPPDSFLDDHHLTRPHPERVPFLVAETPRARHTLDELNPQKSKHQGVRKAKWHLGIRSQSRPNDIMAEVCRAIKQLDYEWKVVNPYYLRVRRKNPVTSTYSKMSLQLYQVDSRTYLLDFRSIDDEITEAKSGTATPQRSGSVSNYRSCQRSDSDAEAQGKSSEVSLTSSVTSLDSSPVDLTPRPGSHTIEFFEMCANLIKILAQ
Chain of recombinant human AMPK complex 1 (containing α1β1γ1) (Q9Y478 whole entry): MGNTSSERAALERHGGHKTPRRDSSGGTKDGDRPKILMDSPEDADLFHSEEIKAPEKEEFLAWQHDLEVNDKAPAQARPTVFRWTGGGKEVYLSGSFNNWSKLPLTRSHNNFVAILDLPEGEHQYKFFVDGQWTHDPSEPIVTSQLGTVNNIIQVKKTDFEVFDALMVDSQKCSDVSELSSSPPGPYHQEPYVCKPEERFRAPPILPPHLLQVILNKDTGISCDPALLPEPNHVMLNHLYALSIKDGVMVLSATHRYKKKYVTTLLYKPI
Chain of recombinant human AMPK complex 1 (containing α1β1γ1) (P54619 whole entry partner): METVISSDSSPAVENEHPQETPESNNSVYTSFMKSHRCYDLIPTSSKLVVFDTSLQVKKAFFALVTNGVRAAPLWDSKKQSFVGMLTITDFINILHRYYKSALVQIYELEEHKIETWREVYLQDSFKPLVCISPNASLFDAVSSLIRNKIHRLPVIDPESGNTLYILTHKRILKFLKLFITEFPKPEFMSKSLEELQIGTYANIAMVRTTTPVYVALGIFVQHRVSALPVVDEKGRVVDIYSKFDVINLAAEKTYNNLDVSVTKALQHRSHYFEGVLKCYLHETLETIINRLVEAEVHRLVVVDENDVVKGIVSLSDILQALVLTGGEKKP

As for `Cc1ccc(Oc2nc3cc(-c4ccc(N5CCCC5=O)cc4)c(Cl)cc3[nH]2)cc1C(=O)O` [Example 350, 2-(3-carboxy-4-methylphenoxy)-6-chloro-5-[4-(2-oxopyrrolidin-1-yl)phenyl]-1H-3,1-benzimidazol-3-ium trifluoroacetate], the Emax under setting [1] was more than 80%.

Consider `Cc1ccc(Oc2nc3cc(-c4ccc(C(C)C)c5c4CCN5C)c(Cl)cc3[nH]2)cc1C(=O)O` [Example 268, 5-[6-Chloro-5-(7-isopropyl-1-methyl-2,3-dihydro-1H-indol-4-yl)-1H-benzoimidazol-2-yloxy]-2-methyl-benzoic acid], for which the Emax under setting [1] was more than 80%.

On to `COC(=O)c1cc(Oc2nc3cc(-c4ccc(-c5ccccc5)cc4)c(Cl)cc3[nH]2)cc(C)c1C` [Example 14, 5-(5-Biphenyl-4-yl-6-chloro-1H-benzoimidazol-2-yloxy)-2,3-dimethyl-benzoic acid methyl ester], for which the Emax under setting [1] was more than 80%.

For the compound `CCOC(=O)c1c(C)[nH]c2ccc(Oc3nc4cc(-c5ccc(-c6ccccc6)cc5)c(Cl)cc4[nH]3)cc12` [Example 4, 5-(5-Biphenyl-4-yl-6-chloro-1H-benzoimidazol-2-yloxy)-2-methyl-1H-indole-3-carboxylic acid ethyl ester], the Emax under setting [1] was more than 80%.

As for `Cc1ccc(C#Cc2cc3nc(Oc4ccc(C)c(C(=O)O)c4)[nH]c3cc2Cl)cc1` [Example 45, 5-(6-Chloro-5-p-tolyethylnyl-1H-benzoimidazol-2-yloxy)-2-methyl-benzoic acid], under setting [1], the Emax was more than 80%.

As for `Cc1ccc(Oc2nc3cc(-c4ccc(C5CCCC5)cc4)c(Cl)cc3[nH]2)cc1C(=O)O` [Example 258, 2-(3-carboxy-4-methylphenoxy)-6-chloro-5-(4-cyclopentylphenyl)-1H-3,1-benzimidazol-3-ium trifluoroacetate], the Emax under setting [1] was more than 80%.

As for `Cc1ccc(Oc2nc3cc(-c4ccc5c(ccc(=O)n5C)c4)c(Cl)cc3[nH]2)cc1C(=O)O` [Example 234, 5-[6-Chloro-5-(1-methyl-2-oxo-1,2-dihydro-quinolin-6-yl)-1H-benzoimidazol-2-yloxy]-2-methyl-benzoic acid], the Emax under setting [1] is more than 80%.

As for `CC(=O)N1CCc2cc(-c3cc4nc(Oc5ccc(C)c(C(=O)O)c5)[nH]c4cc3Cl)ccc21` [Example 306, 5-[5-(1-Acetyl-2,3-dihydro-1H-indol-5-yl)-6-chloro-1H-benzoimidazol-2-yloxy]-2-methyl-benzoic acid], the Emax under setting [1] was more than 80%.

As to `Cc1ccc(Oc2nc3cc(-c4ccc(N5CCNCC5)cc4)c(Cl)cc3[nH]2)cc1C(=O)O` [Example 178, 5-[6-Chloro-5-(4-piperazin-1-yl-phenyl)-1H-benzoimidazol-2-yloxy]-2-methyl-benzoic acid], the Emax under setting [1] was more than 80%.

Turning to `Cc1ccc(Oc2nc3cc(-c4ccc(-c5ccc(C(=O)O)cc5)cc4)c(Cl)cc3[nH]2)cc1C(=O)O` [Example 102, 4′-[2-(3-Carboxy-4-methyl-phenoxy)-6-chloro-1H-benzoimidazol-5-yl]-biphenyl-4-carboxylic acid], under setting [1], the Emax was more than 80%.

Regarding `Cc1ccc(Oc2nc3cc(-c4ccc(-c5ccc(=O)n(C(F)F)c5)cc4)c(Cl)cc3[nH]2)cc1C(=O)O` [Example 162, 5-{6-Chloro-5-[4-(1-difluoromethyl-6-oxo-1,6-dihydro-pyridin-3-yl)-phenyl]1H-benzoimidazol-2-yloxy}-2-methyl-benzoic acid], the Emax under setting [1] is more than 80%.

For `COC(=O)c1cc(Oc2nc3cc(C#Cc4ccccc4OC)c(Cl)cc3[nH]2)ccc1C` [Example 107, 5-[6-Chloro-5-(2-methoxy-phenylethynyl)-1H-benzoimidazol-2-yloxy]-2-methyl-ester], the Emax under setting [1] is more than 80%.

As for `Cc1ccc(Oc2nc3cc(-c4ccc(-c5ccccc5)cc4)ccc3[nH]2)cc1C(=O)O` [Example 207, 5-(5-Biphenyl-4-yl-1H-benzoimidazol-2-yloxy)-2-methyl-benzoic acid], the Emax under setting [1] was more than 80%.

Take `Cc1ccc(Oc2nc3cc(C#Cc4ccc(-c5cccnc5)cc4)c(Cl)cc3[nH]2)cc1C(=O)O` [Example 70, 5-[6-Chloro-5-(4-pyridin-3-yl-phenylethynyl)-1H-benzoimidazol-2-yloxy]-2-methyl-benzoic acid]: the Emax under setting [1] was more than 80%.

For the compound `Cc1c(Oc2nc3cc(-c4ccc5c(ccn5C)c4)c(Cl)cc3[nH]2)cccc1C(=O)O` [Example 218, 3-[6-Chloro-5-(1-methyl-1H-indol-5-yl)-1H-benzoimidazol-2-yloxy]-2-methyl-benzoic acid], the Emax under setting [1] is more than 80%.

As for `COC(=O)c1cc(Oc2nc3cc(C#Cc4cccc(O)c4)c(Cl)cc3[nH]2)ccc1C` [Example 125, 5-[6-Chloro-5-(3-hydroxy-phenylethynyl)-1H-benzoimidazol-2-yloxy]-2-methyl-benzoic acid methyl ester], the Emax under setting [1] is more than 80%.

With `Cc1[nH]c2ccc(Oc3nc4cc(-c5ccc(-c6ccccc6)cc5)c(Cl)cc4[nH]3)cc2c1C(=O)O` [Example 5, 5-(5-Biphenyl-4-yl-6-chloro-1H-benzoimidazol-2-yloxy)-2-methyl-1H-indole-3-carboxylic acid], under setting [1], the Emax is more than 80%.

With `Cc1ccc(Oc2nc3cc(-c4cnc(N5CCCC5)nc4)c(Cl)cc3[nH]2)cc1C(=O)O` [Example 257, 2-(3-carboxy-4-methylphenoxy)-6-chloro-5-(2-pyrrolidin-1-yl-pyrimidin-5-yl)-1H-3,1-benzimidazol-3-ium trifluoroacetate], the Emax under setting [1] is more than 80%.

In the case of `O=c1[nH]nc(-c2cccc(Oc3nc4cc(-c5ccc(-c6ccccc6)cc5)c(Cl)cc4[nH]3)c2)o1` [Example 47, 5-[3-(5-Biphenyl-4-yl-6-chloro-1H-benzoimidazol-2-yloxy)-phenyl]-3H-[1,3,4]oxadiazol-2-one], the Emax under setting [1] is more than 80%.

For `Cc1ccc(Oc2nc3cc(-c4ccc(-c5ccc(O)cc5)cc4)c(Cl)cc3[nH]2)cc1C(=O)O` [Example 104, 5-[6-Chloro-5-(4-hydroxy-biphenyl-4-yl)-1H-benzoimidazol-2-yloxy]-2-methyl-benzoic acid], the Emax under setting [1] was more than 80%.

Regarding `Cc1ccc(Oc2nc3cc(-c4cccc5c4ccn5C)c(Cl)cc3[nH]2)cc1C(=O)O` [Example 283, 5-[6-Chloro-5-(1-methyl-1H-indol-4-yl)-1H-benzoimidazol-2-yloxy]-2-methyl-benzoic acid], under setting [1], the Emax is more than 80%.

Consider `Cc1ccc(Oc2nc3cc(-c4cn[nH]c4)c(Cl)cc3[nH]2)cc1C(=O)O` [Example 160, 5-[6-Chloro-5-(1H-pyrazol-4-yl)-1H-benzoimidazol-2-yloxy]-2-methyl-benzoic acid], for which the Emax under setting [1] is more than 80%.

As to `Cc1ccc(Oc2nc3cc(C#Cc4ccc(C(O)C5CC5)cc4)c(Cl)cc3[nH]2)cc1C(=O)O` (stereo not shown) [Example 88, 5-{6-Chloro-5-[4-(cyclopropyl-hydroxy-methyl)-phenylethynyl]-1H-benzoimidazol-2-yloxy}-2-methyl-benzoic acid], the Emax under setting [1] is more than 80%.

Turning to `Cc1ccc(Oc2nc3cc(C#CC4CCCC4O)c(Cl)cc3[nH]2)cc1C(=O)O` (stereo not shown) [Example 130, 5-[6-Chloro-5-(2-hydroxy-cyclopentylethynyl)-1H-benzoimidazol-2-yloxy]-2-methyl-benzoic acid], the Emax under setting [1] is more than 80%.

In the case of `Cc1ccc(Oc2nc3cc(CCc4ccccc4)c(Cl)cc3[nH]2)cc1C(=O)O` [Example 51, 5-(6-Chloro-5-phenethyl-1H-benzoimidazol-2-yloxy)-2-methyl-benzoic acid], the Emax under setting [1] was more than 80%.

With `Cc1ccc(Oc2nc3cc(-c4ccc5c(ccn5C(C)C)c4)c(Cl)cc3[nH]2)cc1C(=O)O` [Example 253, 5-[6-Chloro-5-(1-isopropyl-1H-indol-5-yl)-1H-benzoimidazol-2-yloxy]-2-methyl-benzoic acid], the Emax was more than 80%.

Turning to `Cc1ccc(Oc2nc3cc(-c4ccc5[nH]cnc5c4)c(Cl)cc3[nH]2)cc1C(=O)O` [Example 140, 2-(3-Carboxy-4-methyl-phenoxy)-6-chloro-1H,1′H-[5,5′]bibenzoimidazolyl-3-ium; chloride], the Emax under setting [1] was more than 80%.

Consider `Cc1ccc(Oc2nc3cc(-c4cccc(CO)n4)c(Cl)cc3[nH]2)cc1C(=O)O` [Example 332, 2-(3-carboxy-4-methylphenoxy)-6-chloro-5-[6-(hydroxymethyl)pyridin-2-yl]-1H-3,1-benzimidazol-3-ium formate], for which the Emax under setting [1] is more than 80%.

`Cc1ccc(Oc2nc3cc(-c4ccc(-c5ccn[nH]5)cc4)c(F)cc3[nH]2)cc1C(=O)O` [Example 246, 5-{6-Fluoro-5-[4-(2H-pyrazol-3-yl)-phenyl]-1H-benzoimidazol-2-yloxy}-2-methyl-benzoic acid]: the Emax under setting [1] was more than 80%.

Turning to `Cc1ccc(Oc2nc3cc(-c4ccc(-c5ccccc5Cl)cc4)c(Cl)cc3[nH]2)cc1C(=O)O` [Example 191, 5-{[6-chloro-5-(2′-chlorobiphenyl-4-yl)-1H-benzimidazol-2-yl]oxy}-2-methylbenzoic acid], under setting [1], the Emax is more than 80%.

`Cc1ccc(Oc2nc3cc(C#Cc4ccccc4Cl)c(Cl)cc3[nH]2)cc1C(=O)O` [Example 115, 5-[6-Chloro-5-(2-chloro-phenylethynyl)-1H-benzoimidazol-2-yloxy]-2-methyl-benzoic acid]: the Emax under setting [1] was more than 80%.

For `Cc1ccc(Oc2nc3cc(C#Cc4ccc(CN)cc4)c(Cl)cc3[nH]2)cc1C(=O)O` [Example 72, 5-[5-(4-Aminomethyl-phenylethynyl)-6-chloro-1H-benzimidazol-2-yloxy]-2-methyl-benzoic acid], under setting [1], the Emax is more than 80%.

In the case of `O=C(O)Cc1cc(Oc2nc3cc(-c4ccc(-c5ccccc5)cc4)c(Cl)cc3[nH]2)ccc1O` [Example 17, [5-(5-Biphenyl-4-yl-6-chloro-1H-benzoimidazol-2-yloxy)-2-hydroxy-phenyl]-acetic acid], the Emax under setting [1] is more than 80%.

For the compound `COC(=O)c1cc(Oc2nc3cc(C#Cc4ccc(OC(C)=O)cc4)c(Cl)cc3[nH]2)ccc1C` [Example 117, 5-[5-(4-Acetoxy-phenylethynyl)-6-chloro-1H-benzoimidazol-2-yloxy]-2-methyl-benzoic acid methyl ester], the Emax under setting [1] is more than 80%.
